Assay results reported in patent US5633263A, “Linear somatostatin analogs” (The Administrators of the Tulane Educational Fund, priority 1994, dated 1997).
Where a SMILES comes first, the peptide text is derived from it. [ ]: non-standard residue; d: D form.

Columns and labels:
[1] = target: [125I-Tyr11]SRIF-14 binding to crude membrane preparations from rat pancreas; assay: Inhibition of [125I]SRIF-14 binding, pancreas membranes; settings: for IC50: rat pancreas membranes, [125I]SRIF-14 approximately 0.05 nM, read-out: IC50 (nM) Pancreas, inhibition of I125 SRIF-14 binding
Method: (§1) Crude membrane preparations were obtained from rat pancreas, cerebral cortex, or human small cell lung carcinoma (NCI-H69) cells by homogenizing (Polytron, setting 6, 15 sec) the tissues or cells in ice-cold 50 mM Tris-HCl and centrifuging twice at 39,000× g (10 min), with an intermediate resuspension in fresh buffer. The final pellets were resuspended in 10 mM Tris-HCl for assay. Aliquots of the membrane preparation were incubated for 25 min at 30° C. with labeled somatotropin-release-inhibiting factor, [^125 I-Tyr^11 ] SRIF-14 (2000 Ci/mmol, Amersham Corp.), in 50 mM HEPES (pH 7.4) containing bovine serum albumin (10 mg/ml; fraction V, Sigma Chem.), MgCl2 (5mM), Trasylol (200 KIU/ml), bacitracin (0.02 mg/ml), and phenylmethylsulphonyl fluoride (0.02 mg/ml). The final assay volume was 0.3 ml. The incubations were terminated by rapid filtration through Whatman GF/C filters (pre-soaked in 0.3% polyethylenimine) under reduced pressure. Each tube and filter were then washed three times with 5 ml aliquots of ice-cold buffer. Specific binding was defined as the total [^125 I]SRIF-14 bound minus that bound in the presence of 200 nM unlabelled SRIF-14.
Table 1 gives results of inhibition of [^125 I]SRIF-14 binding by linear peptides of the invention. The concentration of [^125 I]SRIF-14 was approximately 0.05 nM. (Values in parenthesis indicate the number of independent determinations.) The IC50 (concentration of analog resulting is 50% competitive inhibition) in nM values are indicated for pancreas, small cell lung carcinoma (SCLC), and brain. […] Peptide DC-23-85, which is not within the invention, inhibits the binding of I^125 SRIF-14 only poorly.

[2] = tested on: [125I-Tyr11]SRIF-14 binding to crude membrane preparations from human small cell lung carcinoma (NCI-H69) cells; assay: Inhibition of [125I]SRIF-14 binding, SCLC membranes; settings: [125I]SRIF-14 approximately 0.05 nM, read-out: IC50 (nM) SCLC, inhibition of I125 SRIF-14 binding
Method: as §1
(§2) Table 1 gives results of inhibition of [^125 I]SRIF-14 binding by linear peptides of the invention. The concentration of [^125 I]SRIF-14 was approximately 0.05 nM. […]

[3] = target: [125I-Tyr11]SRIF-14 binding to crude membrane preparations from rat cerebral cortex; assay: Inhibition of [125I]SRIF-14 binding, brain membranes; settings: [125I]SRIF-14 approximately 0.05 nM, read-out: IC50 (nM) Brain, inhibition of I125 SRIF-14 binding
Method: as §1, §2

inhibiting the binding of I125 SRIF-14 (in words) ([1]; summary in words of Table 1 (pancreas, SCLC, brain))	Structure (SMILES)	IC50 [1] [nM]	IC50 [2] [nM]	IC50 [3] [nM]
–	C[C@H](N)C(=O)NCC(=O)N[C@H]1CSSC[C@@H](C(=O)O)NC(=O)[C@H](CO)NC(=O)[C@H]([C@@H](C)O)NC(=O)[C@H](Cc2ccccc2)NC(=O)[C@H]([C@@H](C)O)NC(=O)[C@H](CCCCN)NC(=O)[C@H](Cc2c[nH]c3ccccc23)NC(=O)[C@H](Cc2ccccc2)NC(=O)[C@H](Cc2ccccc2)NC(=O)[C@H](CC(N)=O)NC(=O)[C@H](CCCCN)NC1=O [Somatostatin, Ala-Gly-Cys-Lys-Asn-Phe-Phe-Trp-Lys-Thr-Phe-Ser-OH]	0.53	4.2	0.53
particularly effective	C[C@@H](O)[C@H](NC(=O)[C@H](Cc1ccccc1)NC(=O)[C@@H](NC(=O)[C@H](CCCCN)NC(=O)[C@@H](Cc1c[nH]c2ccccc12)NC(=O)[C@H](Cc1ccccc1)NC(=O)[C@H](Cc1ccccc1)NC(=O)[C@H](N)Cc1ccccc1)[C@@H](C)O)C(N)=O [BIM-23052/DC-23-99, D-Phe-Phe-Phe-D-Trp-Lys-Thr-Phe-Thr-NH2] (H-[dF]FF[dW]KTFT-NH2)	9.4	1.2	7.3
